Measurements taken from patent publication US8440638B2, “Compositions and methods for modulating calcium flux, glucose homeostasis and apoptosis” (Wisconsin Alumni Research Foundation, priority 2004, dated 2013).

Tested on: TRPM2-expressing HEK-293 cells
Experiment: Cell viability assay (calcein fluorescence), tet-inducible TRPM2 HEK-293 cells
Assay type: cell-based
Protocol: Shown are HEK-293 cells (closed diamond) and HEK-293 cells stably transfected with a tet-controlled TRPM2 construct in the presence (open squares) or absence of (open diamonds) tetracycline. […] TRPM2-expressing HEK-293 cells were grown in complete DMEM media and 1 μg/ml tetracycline until 80-90% confluent. One set of cells were re-fed with the same complete media (closed diamonds) and the other set of cells were rinsed with PBS and fed with modified media containing 1 μg/ml tetracycline, 5 mM EGTA and without calcium chloride (open squares). […] HEK-293 (close diamond) and TRPM2 expressing HEK-293 cells in the absence (open diamond) or presence of (closed square) tetracycline were exposed to 0-10 μg/ml cycloheximide for 16 h. Cell viability was determined as described in (a).
TRPM2-expressing HEK-293 cells were exposed to 0-50 μM puromycin for 16 h in the presence (open diamond) or absence (closed diamond) of 500 μM nicotinamide. […] TRPM2-expressing HEK-293 cells were exposed to 0-50 μM puromycin for 16 h in the presence (open diamond) or absence (closed diamond) of 1.5 mM 3-aminobenzamide. Cell survival was determined as described in (a).
HEK-293 and tetracycline (tet)-inducible HEK-293 TRPM2-expressing cells (23) were cultured in DMEM and 10% FBS at 37° C., 5% CO2. Media used to culture tet-inducible HEK-293 cells was supplemented with blasticidin (5 μg ml^−1; Invitrogen) and zeocin (0.4 mg/ml; Invitrogen). To induce expression of TRPM2 in recombinant HEK-293 cells, tetracycline was added to the media at 1 μg ml^−1 (Invitrogen) 24 h prior to experiments. The CRI-G1 rat β-islet tumor cell line was obtained from EACC and cultured in DMEM, 10% FBS and 2 mM glutamine.
HEK-293, tet-inducible HEK-293, and CRI-G1 cells were seeded into 6 well plates at a density of 500,000 cells per well. When cells were 50-70% confluent, puromycin was added to the media at various concentrations for 16 hours. Cell monolayers were rinsed with PBS, after which 0.5 ml of 2 μM calcein in PBS was added directly to the well for 10-20 minutes. Calcein is retained in living, but not dead cells, where it undergoes catalytic conversion into a fluorescent compound Fluorescence in each well was measured in a microplate reader using excitation and emission filters at 485/530 nm, respectively.

## COc1ccc(C[C@H](N)C(=O)N[C@H]2[C@@H](O)[C@H](n3cnc4c(N(C)C)ncnc43)O[C@@H]2CO)cc1 [puromycin]
Ca2+ removed (5 mM EGTA) before puromycin 0-500 μM, 6 h
  puromycin-induced cell death in Ca2+-free media: completely blocked
TRPM2 expression not induced by tet
  puromycin-dependent cell death, TRPM2 not induced: nearly complete protection
Not induced by tet, 50 μM puromycin
  puromycin-dependent cell death, TRPM2 not induced, highest level: Some cell death
tet-induced TRPM2 expression, as little as 5 μM, dose-dependence up to 50 μM, 16 h
  cell death following puromycin treatment: profound sensitivity to cell death
